Experimental data reported in ChEMBL document CHEMBL5113392, “Novel hybrid pyrrolidinedione-thiazolidinones as potential anticancer agents: Synthesis and biological evaluation” (Eur J Med Chem, 2022).

Columns and labels:
RXF 393 = assay: Anticancer activity against human RXF 393 cells assessed as inhibition of cell growth at 10 uM incubated for 48 hrs by SRB assay; assay type: functional; conditions: RXF 393, 48 h, values are per cent of control
CCRF-CEM = assay: Anticancer activity against human CCRF-CEM cells assessed as growth inhibition incubated for 48 hrs by SRB assay; assay type: functional
NCI-H226 = assay: Anticancer activity against human NCI-H226 cells assessed as growth inhibition incubated for 48 hrs by SRB assay; assay type: functional
NCI-H460 [1] = assay: Anticancer activity against human NCI-H460 cells assessed as growth inhibition incubated for 48 hrs by SRB assay; assay type: functional
HCT-116 = assay: Anticancer activity against human HCT-116 cells assessed as growth inhibition incubated for 48 hrs by SRB assay; assay type: functional
SW-620 [2] = assay: Anticancer activity against human SW-620 cells assessed as growth inhibition incubated for 48 hrs by SRB assay; assay type: functional
SNB-19 = assay: Anticancer activity against human SNB-19 cells assessed as growth inhibition incubated for 48 hrs by SRB assay; assay type: functional
MDA-MB-435 [3] = assay: Anticancer activity against human MDA-MB-435 cells assessed as growth inhibition incubated for 48 hrs by SRB assay; assay type: functional
SK-MEL-28 [4] = assay: Anticancer activity against human SK-MEL-28 cells assessed as growth inhibition incubated for 48 hrs by SRB assay; assay type: functional
IGROV-1 [5] = assay: Anticancer activity against human IGROV-1 cells assessed as growth inhibition incubated for 48 hrs by SRB assay; assay type: functional
786-0 [6] = assay: Anticancer activity against human 786-0 cells assessed as growth inhibition incubated for 48 hrs by SRB assay; assay type: functional
DU-145 = assay: Anticancer activity against human DU-145 cells assessed as growth inhibition incubated for 48 hrs by SRB assay; assay type: functional
BT-549 = assay: Anticancer activity against human BT-549 cells assessed as growth inhibition incubated for 48 hrs by SRB assay; assay type: functional
K562 = assay: Anticancer activity against human K562 cells assessed as total growth inhibition incubated for 48 hrs by SRB assay; assay type: functional
RPMI-8226 [7] = assay: Anticancer activity against human RPMI-8226 cells assessed as total growth inhibition incubated for 48 hrs by SRB assay; assay type: functional
SR [8] = assay: Anticancer activity against human SR cells assessed as total growth inhibition incubated for 48 hrs by SRB assay; assay type: functional
NCI-H322M = assay: Anticancer activity against human NCI-H322M cells assessed as total growth inhibition incubated for 48 hrs by SRB assay; assay type: functional
NCI-H460 [9] = assay: Anticancer activity against human NCI-H460 cells assessed as total growth inhibition incubated for 48 hrs by SRB assay; assay type: functional
HCT-15 = assay: Anticancer activity against human HCT-15 cells assessed as total growth inhibition incubated for 48 hrs by SRB assay; assay type: functional
HT-29 = assay: Anticancer activity against human HT-29 cells assessed as total growth inhibition incubated for 48 hrs by SRB assay; assay type: functional
SF-295 = assay: Anticancer activity against human SF-295 cells assessed as total growth inhibition incubated for 48 hrs by SRB assay; assay type: functional
U-251 [10] = assay: Anticancer activity against human U-251 cells assessed as total growth inhibition incubated for 48 hrs by SRB assay; assay type: functional
M14 [11] = assay: Anticancer activity against human M14 cells assessed as total growth inhibition incubated for 48 hrs by SRB assay; assay type: functional
SK-MEL-2 = assay: Anticancer activity against human SK-MEL-2 cells assessed as total growth inhibition incubated for 48 hrs by SRB assay; assay type: functional
SK-MEL-28 [12] = assay: Anticancer activity against human SK-MEL-28 cells assessed as total growth inhibition incubated for 48 hrs by SRB assay; assay type: functional
IGROV-1 [13] = assay: Anticancer activity against human IGROV-1 cells assessed as total growth inhibition incubated for 48 hrs by SRB assay; assay type: functional
OVCAR-8 [14] = assay: Anticancer activity against human OVCAR-8 cells assessed as total growth inhibition incubated for 48 hrs by SRB assay; assay type: functional
786-0 [15] = assay: Anticancer activity against human 786-0 cells assessed as total growth inhibition incubated for 48 hrs by SRB assay; assay type: functional
SN12C = assay: Anticancer activity against human SN12C cells assessed as total growth inhibition incubated for 48 hrs by SRB assay; assay type: functional
RPMI-8226 [16] = assay: Anticancer activity against human RPMI-8226 cells assessed as lethality incubated for 48 hrs by SRB assay; assay type: functional; conditions: read-out: LC50 (the source's name)
SR [17] = assay: Anticancer activity against human SR cells assessed as lethality incubated for 48 hrs by SRB assay; assay type: functional; conditions: read-out: LC50 (the source's name)
HCC 2998 = assay: Anticancer activity against human HCC 2998 cells assessed as lethality incubated for 48 hrs by SRB assay; assay type: functional; conditions: read-out: LC50 (the source's name)
SW-620 [18] = assay: Anticancer activity against human SW-620 cells assessed as lethality incubated for 48 hrs by SRB assay; assay type: functional; conditions: read-out: LC50 (the source's name)
SF-539 = assay: Anticancer activity against human SF-539 cells assessed as lethality incubated for 48 hrs by SRB assay; assay type: functional; conditions: read-out: LC50 (the source's name)
M14 [19] = assay: Anticancer activity against human M14 cells assessed as lethality incubated for 48 hrs by SRB assay; assay type: functional; conditions: read-out: LC50 (the source's name)
MDA-MB-435 [20] = assay: Anticancer activity against human MDA-MB-435 cells assessed as lethality incubated for 48 hrs by SRB assay; assay type: functional; conditions: read-out: LC50 (the source's name)
UACC-257 = assay: Anticancer activity against human UACC-257 cells assessed as lethality incubated for 48 hrs by SRB assay; assay type: functional; conditions: read-out: LC50 (the source's name)
UACC-62 = assay: Anticancer activity against human UACC-62 cells assessed as lethality incubated for 48 hrs by SRB assay; assay type: functional; conditions: read-out: LC50 (the source's name)
OVCAR-4 = assay: Anticancer activity against human OVCAR-4 cells assessed as lethality incubated for 48 hrs by SRB assay; assay type: functional; conditions: read-out: LC50 (the source's name)
OVCAR-8 [21] = assay: Anticancer activity against human OVCAR-8 cells assessed as lethality incubated for 48 hrs by SRB assay; assay type: functional; conditions: read-out: LC50 (the source's name)
MDA-MB-231 = assay: Anticancer activity against human MDA-MB-231 cells assessed as cell growth inhibition incubated for 72 hrs by MTT assay; assay type: functional
KB 3-1 = assay: Anticancer activity against human KB 3-1 cells assessed as cell growth inhibition incubated for 72 hrs by MTT assay; assay type: functional
[22] = Anticancer activity against human HCT116-p53-null cells assessed as cell growth inhibition incubated for 72 hrs by MTT assay; assay type: functional
U-251 [23] = assay: Anticancer activity against human U-251 cells assessed as cell growth inhibition incubated for 72 hrs by MTT assay; assay type: functional
SK-OV-3 = assay: Anticancer activity against human SK-OV-3 cells assessed as cell growth inhibition incubated for 72 hrs by MTT assay; assay type: functional
[24] = Cytotoxicity against mitogen activated human peripheral blood lymphocytes assessed as cell growth inhibition incubated for 24 hrs by MTT assay; assay type: toxicity, cell-based, Lymphocyte
Lymphocyte = assay: Induction of morphological changes in mitogen activated human peripheral blood lymphocytes assessed as increase in number of single cells incubated for 24 hrs by Hoechst 33258 and propidium iodide staining based fluorescence microscopy; assay type: toxicity, cell-based
Salmon testes DNA = assay: Displacement of methyl green from salmon sperm DNA at 10 uM measured after 2 hrs by fluorescence plate reader method relative to control; assay type: nucleic-acid assay; conditions: Salmo salar
LOX IMVI = assay: Anticancer activity against human LOX IMVI cells assessed as inhibition of cell growth at 10 uM incubated for 48 hrs by SRB assay; values are per cent of control

## O=C1CC(N2C(=O)/C(=C/C(Cl)=C/c3ccc([N+](=O)[O-])cc3)SC2=S)C(=O)N1c1ccc(Cl)cc1 (stereo not drawn)
RXF 393
  growth, % of control at 10 µM: -64.1%
CCRF-CEM
  GI50: 0.486 µM
NCI-H226
  GI50: 1.92 µM
NCI-H460 [1]
  GI50: 3.3 µM
HCT-116
  GI50: 1.35 µM
SW-620 [2]
  GI50: 0.508 µM
SNB-19
  GI50: 1.17 µM
MDA-MB-435 [3]
  GI50: 1.65 µM
SK-MEL-28 [4]
  GI50: 1.71 µM
IGROV-1 [5]
  GI50: 1.03 µM
786-0 [6]
  GI50: 1.63 µM
DU-145
  GI50: 2.09 µM
BT-549
  GI50: 1.75 µM
K562
  TGI: 11.6 µM
RPMI-8226 [7]
  TGI: 0.979 µM
SR [8]
  TGI: 14.2 µM
NCI-H322M
  TGI: > 100 µM
NCI-H460 [9]
  TGI: > 100 µM
HCT-15
  TGI: 8.2 µM
HT-29
  TGI: 4.6 µM
SF-295
  TGI: 3.24 µM
U-251 [10]
  TGI: 2.47 µM
M14 [11]
  TGI: 5.06 µM
SK-MEL-2
  TGI: 32.1 µM
SK-MEL-28 [12]
  TGI: 4.02 µM
IGROV-1 [13]
  TGI: 3.26 µM
OVCAR-8 [14]
  TGI: > 100 µM
786-0 [15]
  TGI: 3.33 µM
SN12C
  TGI: 11.1 µM
RPMI-8226 [16]
  CC50: 71 µM
SR [17]
  CC50: 57.6 µM
HCC 2998
  CC50: 5.76 µM
SW-620 [18]
  CC50: > 100 µM
SF-539
  CC50: > 100 µM
M14 [19]
  CC50: > 100 µM
MDA-MB-435 [20]
  CC50: 6.98 µM
UACC-257
  CC50: > 100 µM
UACC-62
  CC50: 12 µM
OVCAR-4
  CC50: > 100 µM
OVCAR-8 [21]
  CC50: > 100 µM
MDA-MB-231
  GI50: 6.45 µM
KB 3-1
  GI50: 70.3 µM
[22]
  GI50: 6 µM
U-251 [23]
  GI50: 8.93 µM
SK-OV-3
  GI50: 65.9 µM
[24]
  GI50 at 24 h: 36.8 µM
Lymphocyte
  Activity: Toxic
Salmon testes DNA
  Activity: 7.9%
LOX IMVI
  growth percent at 10 µM: -71.7%

## O=C1CC(N2C(=O)/C(=C/C(Cl)=C/c3ccc([N+](=O)[O-])cc3)SC2=S)C(=O)N1c1ccc(O)cc1 (stereo not drawn)
RXF 393
  growth, % of control at 10 µM: -70.5%
CCRF-CEM
  GI50: 0.385 µM
NCI-H226
  GI50: 2.41 µM
NCI-H460 [1]
  GI50: 2.55 µM
HCT-116
  GI50: 0.751 µM
SW-620 [2]
  GI50: 0.684 µM
SNB-19
  GI50: 1.34 µM
MDA-MB-435 [3]
  GI50: 2.01 µM
SK-MEL-28 [4]
  GI50: 1.95 µM
IGROV-1 [5]
  GI50: 1.2 µM
786-0 [6]
  GI50: 1.23 µM
DU-145
  GI50: 1.72 µM
BT-549
  GI50: 2.03 µM
K562
  TGI: 9.55 µM
RPMI-8226 [7]
  TGI: 4.36 µM
SR [8]
  TGI: 4.97 µM
NCI-H322M
  TGI: 6.67 µM
NCI-H460 [9]
  TGI: 6.75 µM
HCT-15
  TGI: 1.95 µM
HT-29
  TGI: 8.78 µM
SF-295
  TGI: 2.7 µM
U-251 [10]
  TGI: 2.21 µM
M14 [11]
  TGI: 3.31 µM
SK-MEL-2
  TGI: 7.83 µM
SK-MEL-28 [12]
  TGI: 4.2 µM
IGROV-1 [13]
  TGI: 2.68 µM
OVCAR-8 [14]
  TGI: 14.2 µM
786-0 [15]
  TGI: 4.8 µM
SN12C
  TGI: 5.88 µM
RPMI-8226 [16]
  CC50: > 100 µM
SR [17]
  CC50: > 100 µM
HCC 2998
  CC50: 5.76 µM
SW-620 [18]
  CC50: 6.3 µM
SF-539
  CC50: 8.43 µM
M14 [19]
  CC50: 7.51 µM
MDA-MB-435 [20]
  CC50: 9.37 µM
UACC-257
  CC50: 44.2 µM
UACC-62
  CC50: 6.86 µM
OVCAR-4
  CC50: 41.9 µM
OVCAR-8 [21]
  CC50: > 100 µM
MDA-MB-231
  GI50: 6.2 µM
KB 3-1
  GI50: 8 µM
[22]
  GI50: 5.65 µM
U-251 [23]
  GI50: 1.1 µM
SK-OV-3
  GI50: > 100 µM
[24]
  GI50 at 24 h: 67.1 µM
Lymphocyte
  Activity: Toxic
Salmon testes DNA
  Activity: 6.2%
LOX IMVI
  growth percent at 10 µM: -83.7%
